Legend:
Assay type in all cases: cell-based
[1] = test system: Staphylococcus haemolyticus 105; assay: MIC, standard broth micro-dilution assay, SH 105
Description: (§1) The antibacterial efficacy of the present compounds is illustrated by Table II. The minimal inhibitory concentrations (MICs) were determined using a standard broth micro-dilution assay.

[2] = test system: Staphylococcus epidermidis 270; assay: MIC, standard broth micro-dilution assay, SE 270
Description: as §1

[3] = test system: Streptococcus pneumoniae P1; assay: MIC, standard broth micro-dilution assay, SPN P1
Description: as §1

[4] = test system: Enterococcus faecium and faecalis (SENSITIVE); conditions: geometric mean of 4-6 isolates
Description: as §1

[5] = test system: Enterococcus faecium and faecalis (RESISTANT); conditions: geometric mean of 4-6 isolates
Description: as §1

[6] = test system: Streptococcus pyogenes C203; assay: MIC, standard broth micro-dilution assay, SPY C203
Description: as §1

[7] = test system: Staphylococcus aureus 489; assay: MIC, standard broth micro-dilution assay, SA 489
Description: as §1

[8] = test system: Staphylococcus aureus 446; assay: MIC, standard broth micro-dilution assay, SA 446
Description: as §1

[9] = test system: Staphylococcus aureus 447; assay: MIC, standard broth micro-dilution assay, SA 447
Description: as §1

[10] = test system: Staphylococcus haemolyticus 415; assay: MIC, standard broth micro-dilution assay, SH 415
Description: as §1

Compound	Minimal Inhibitory Concentration (MIC) SH 105 [1]	Minimal Inhibitory Concentration (MIC) SE 270 [2]	Minimal Inhibitory Concentration (MIC) SPN P1 [3]	Minimal Inhibitory Concentration (MIC) SENSITIVE [4]	Minimal Inhibitory Concentration (MIC) RESISTANT [5]	Minimal Inhibitory Concentration (MIC) SPY C203 [6]	Minimal Inhibitory Concentration (MIC) SA 489 [7]	Minimal Inhibitory Concentration (MIC) SA 446 [8]	Minimal Inhibitory Concentration (MIC) SA 447 [9]	Minimal Inhibitory Concentration (MIC) SH 415 [10]
CC(C)CC(C(=O)NC1C(=O)NC(CC(N)=O)C(=O)NC2C(=O)NC3C(=O)NC(C(=O)NC(C(=O)O)c4cc(O)cc(O)c4-c4cc3ccc4O)C(OC3CC(C)(N)C(O)C(C)O3)c3ccc(c(Cl)c3)Oc3cc2cc(c3OC2OC(CO)C(O)C(O)C2OC2CC(C)(N)C(O)C(C)O2)Oc2ccc(cc2Cl)C1O)N(C)C(=S)Nc1ccccc1 (stereo not shown) [Example 1, N^LEU -(PHENYLTHIOCARBAMOYL)A82846B]	64	8	2	16	> 128	2	4	8	8	> 64
CC(C)CC(C(=O)NC1C(=O)NC(CC(N)=O)C(=O)NC2C(=O)NC3C(=O)NC(C(=O)NC(C(=O)O)c4cc(O)cc(O)c4-c4cc3ccc4O)C(OC3CC(C)(N)C(O)C(C)O3)c3ccc(c(Cl)c3)Oc3cc2cc(c3OC2OC(CO)C(O)C(O)C2OC2CC(C)(N)C(O)C(C)O2)Oc2ccc(cc2Cl)C1O)N(C)C(=S)Nc1ccc(N(C)C)cc1 (stereo not shown) [Example 15, N^LEU -((p-(DIMETHYLAMINO)-PHENYL)THIOCARBAMOYL)A82846B]	> 64	16	0.25	24	> 128	0.25	4	8	16	> 64
CC(C)CC(C(=O)NC1C(=O)NC(CC(N)=O)C(=O)NC2C(=O)NC3C(=O)NC(C(=O)NC(C(=O)O)c4cc(O)cc(O)c4-c4cc3ccc4O)C(OC3CC(C)(N)C(O)C(C)O3)c3ccc(c(Cl)c3)Oc3cc2cc(c3OC2OC(CO)C(O)C(O)C2OC2CC(C)(NCc3ccc(Cl)cc3)C(O)C(C)O2)Oc2ccc(cc2Cl)C1O)N(C)C(=S)Nc1cccc2ccccc12 (stereo not shown) [Example 6, N^LEU -(1-NAPHTHYLTHIOCARBAMOYL)-N^DISACC -(p-CHLOROBENZYL)A82846B]	4	64	≤ 0.06	5	128	≤ 0.06	16	2	4	8
CC(C)CC(C(=O)NC1C(=O)NC(CC(N)=O)C(=O)NC2C(=O)NC3C(=O)NC(C(=O)NC(C(=O)O)c4cc(O)cc(O)c4-c4cc3ccc4O)C(OC3CC(C)(N)C(O)C(C)O3)c3ccc(c(Cl)c3)Oc3cc2cc(c3OC2OC(CO)C(O)C(O)C2OC2CC(C)(NCc3ccc(Oc4ccccc4)cc3)C(O)C(C)O2)Oc2ccc(cc2Cl)C1O)N(C)C(=S)Nc1ccc(N(C)C)cc1 (stereo not shown) [Example 19, N^LEU -((p-(DIMETHYLAMINO)-PHENYL)THIOCARBAMOYL)-N^DISACC -(p-PHENOXYBENZYL)A82846B]	2	2	2	2.6	19	0.25	2	2	2	4
CC(C)C[C@H](C(=O)N[C@H]1C(=O)N[C@@H](CC(N)=O)C(=O)N[C@H]2C(=O)N[C@H]3C(=O)N[C@H](C(=O)N[C@H](C(=O)O)c4cc(O)cc(O)c4-c4cc3ccc4O)[C@H](O[C@H]3C[C@](C)(N)[C@@H](O)[C@H](C)O3)c3ccc(c(Cl)c3)Oc3cc2cc(c3O[C@@H]2O[C@H](CO)[C@@H](O)[C@H](O)[C@H]2O[C@H]2C[C@](C)(NCc3ccc(Cl)cc3)[C@@H](O)[C@H](C)O2)Oc2ccc(cc2Cl)[C@H]1O)N(C)C(=S)Nc1ccccc1 [Example 2, N^LEU -(PHENYLTHIOCARBAMOYL)-N^DISACC -(p-CHLOROBENZYL)A82846B]	8	4	0.25	3.4	128	0.125	2	2	2	16
CC(C)CC(C(=O)NC1C(=O)NC(CC(N)=O)C(=O)NC2C(=O)NC3C(=O)NC(C(=O)NC(C(=O)O)c4cc(O)cc(O)c4-c4cc3ccc4O)C(OC3CC(C)(N)C(O)C(C)O3)c3ccc(c(Cl)c3)Oc3cc2cc(c3OC2OC(CO)C(O)C(O)C2OC2CC(C)(N)C(O)C(C)O2)Oc2ccc(cc2Cl)C1O)N(C)C(=S)Nc1ccc([N+](=O)[O-])cc1 (stereo not shown) [Example 14, N^LEU -((p-NITROPHENYL)-THIOCARBAMOYL)A82846B]	16	4	0.25	3.5	> 128	≤ 0.06	2	2	4	32
CC(C)C[C@H](C(=O)N[C@H]1C(=O)N[C@@H](CC(N)=O)C(=O)N[C@H]2C(=O)N[C@H]3C(=O)N[C@H](C(=O)N[C@H](C(=O)O)c4cc(O)cc(O)c4-c4cc3ccc4O)[C@H](O[C@H]3C[C@](C)(N)[C@@H](O)[C@H](C)O3)c3ccc(c(Cl)c3)Oc3cc2cc(c3O[C@@H]2O[C@H](CO)[C@@H](O)[C@H](O)[C@H]2O[C@H]2C[C@](C)(NCc3ccc(-c4ccccc4)cc3)[C@@H](O)[C@H](C)O2)Oc2ccc(cc2Cl)[C@H]1O)N(C)C(=S)Nc1ccccc1 [Example 4, N^LEU -(PHENYLTHIOCARBAMOYL)-N^DISACC -(p-PHENYLBENZYL)A82846B]	2	0.5	0.125	4	14	≤ 0.06	0.125	2	1	1
CCCCc1ccc(NC(=S)N(C)C(CC(C)C)C(=O)NC2C(=O)NC(CC(N)=O)C(=O)NC3C(=O)NC4C(=O)NC(C(=O)NC(C(=O)O)c5cc(O)cc(O)c5-c5cc4ccc5O)C(OC4CC(C)(N)C(O)C(C)O4)c4ccc(c(Cl)c4)Oc4cc3cc(c4OC3OC(CO)C(O)C(O)C3OC3CC(C)(N)C(O)C(C)O3)Oc3ccc(cc3Cl)C2O)cc1 (stereo not shown) [Example 17, N^LEU -((p-n-BUTYLPHENYL)-THIOCARBAMOYL)A82846B]	4	2	≤ 0.06	6.1	> 128	0.25	1	2	1	32
CC(C)CC(C(=O)NC1C(=O)NC(CC(N)=O)C(=O)NC2C(=O)NC3C(=O)NC(C(=O)NC(C(=O)O)c4cc(O)cc(O)c4-c4cc3ccc4O)C(OC3CC(C)(N)C(O)C(C)O3)c3ccc(c(Cl)c3)Oc3cc2cc(c3OC2OC(CO)C(O)C(O)C2OC2CC(C)(N)C(O)C(C)O2)Oc2ccc(cc2Cl)C1O)N(C)C(=S)Nc1ccc(OCc2ccccc2)cc1 (stereo not shown) [Example 16, N^LEU -((p-(BENZYLOXY)PHENYL)-THIOCARBAMOYL)A82846B]	8	4	0.125	7	> 128	≤ 0.06	0.5	1	1	64
CCCCc1ccc(NC(=S)N(C)C(CC(C)C)C(=O)NC2C(=O)NC(CC(N)=O)C(=O)NC3C(=O)NC4C(=O)NC(C(=O)NC(C(=O)O)c5cc(O)cc(O)c5-c5cc4ccc5O)C(OC4CC(C)(N)C(O)C(C)O4)c4ccc(c(Cl)c4)Oc4cc3cc(c4OC3OC(CO)C(O)C(O)C3OC3CC(C)(NCc4ccc(Oc5ccccc5)cc4)C(O)C(C)O3)Oc3ccc(cc3Cl)C2O)cc1 (stereo not shown) [Example 18, N^LEU -((p-n-BUTYLPHENYL)-THIOCARBAMOYL)-N^DISACC -(p-PHENOXYBENZYL)A82846B]	2	2	2	1.7	4.7	0.25	2	2	2	2

Reference: patent US5919771A, “Urea and thiourea derivatives of glycopeptides” (Eli Lilly and Company, priority 1998, dated 1999)
